Measurements published in ChEMBL document CHEMBL3885881, “DrugMatrix”.

Organism: Rattus norvegicus
Test: DrugMatrix - Regimen: Daily Repeat
Format: toxicity, organism-based, Sprague-Dawley
Design: regimen Daily Repeat, gender Male, age 6-8 weeks
Settings: in vivo, po, route oral GAVAGE, vehicle .5 % CMC; for ABSOLUTE BASOPHIL / ABSOLUTE EOSINOPHIL / ABSOLUTE LYMPHOCYTE / ABSOLUTE MONOCYTE / ABSOLUTE SEGMENTED NEUTROPHIL / BASOPHIL / EOSINOPHIL / ERYTHROCYTE COUNT / HEMATOCRIT / HEMOGLOBIN / LEUKOCYTE COUNT / LYMPHOCYTE / MEAN CORPUSCULAR HEMOGLOBIN / MEAN CORPUSCULAR HEMOGLOBIN CONCENTRATION / MEAN CORPUSCULAR VOLUME / MONOCYTE / NEUTROPHIL / NUCLEATED RED BLOOD CELLS / PLATELET COUNT: tissue Blood; for ALANINE AMINOTRANSFERASE / ALBUMIN / ALKALINE PHOSPHATASE / ASPARTATE AMINOTRANSFERASE / BLOOD UREA NITROGEN / CARBON DIOXIDE / CHLORIDE / CHOLESTEROL / CREATINE PHOSPHOKINASE / CREATININE / GLUCOSE / LACTATE DEHYDROGENASE / LIPASE / PHOSPHORUS / POTASSIUM / SODIUM / TOTAL BILIRUBIN / TOTAL PROTEIN / URIC ACID: tissue Plasma
[1] = 0 mg/kg, 72 h, dose level Control, time 3 day
[2] = 0 mg/kg, 120 h, dose level Control, time 5 day
[3] = 17 mg/kg, 72 h, dose level Low, time 3 day

CN1CCN(CCCN2c3ccccc3Sc3ccc(Cl)cc32)CC1 [PROCHLORPERAZINE]
ABSOLUTE BASOPHIL [1]: 0 CELLS/uL
ABSOLUTE EOSINOPHIL [1]: 0 CELLS/uL
ABSOLUTE LYMPHOCYTE [1]: 10913.67 CELLS/uL
ABSOLUTE MONOCYTE [1]: 85.33 CELLS/uL
ABSOLUTE SEGMENTED NEUTROPHIL [1]: 1401 CELLS/uL
BASOPHIL [1]: 0%
EOSINOPHIL [1]: 0%
ERYTHROCYTE COUNT [1]: 5.57 x10E6/uL
HEMATOCRIT [1]: 35.58%
HEMOGLOBIN [1]: 13.8 G/DL
LEUKOCYTE COUNT [1]: 12.4 x10E3/uL
LYMPHOCYTE [1]: 88%
MEAN CORPUSCULAR HEMOGLOBIN [1]: 24.78 pg
MEAN CORPUSCULAR HEMOGLOBIN CONCENTRATION [1]: 38.82 G/DL
MEAN CORPUSCULAR VOLUME [1]: 63.88 fL
MONOCYTE [1]: 0.67%
NEUTROPHIL [1]: 11.33%
NUCLEATED RED BLOOD CELLS [1]: 0 /100WBC
PLATELET COUNT [1]: 1162.33 x10E3/uL
ALANINE AMINOTRANSFERASE [1]: 53 u/L
ALBUMIN [1]: 4.17 G/DL
ALKALINE PHOSPHATASE [1]: 374.5 u/L
ASPARTATE AMINOTRANSFERASE [1]: 89.5 u/L
BLOOD UREA NITROGEN [1]: 16.33 mg/dL
CARBON DIOXIDE [1]: 29.17 mmol/L
CHLORIDE [1]: 97.67 MEQ/L
CHOLESTEROL [1]: 77 mg/dL
CREATINE PHOSPHOKINASE [1]: 464.83 u/L
CREATININE [1]: 0.14 mg/dL
GLUCOSE [1]: 164 mg/dL
LACTATE DEHYDROGENASE [1]: 155.5 u/L
LIPASE [1]: 9.17 u/L
PHOSPHORUS [1]: 12.4 mg/dL
POTASSIUM [1]: 6.91 MEQ/L
SODIUM [1]: 141.47 MEQ/L
TOTAL BILIRUBIN [1]: 0.2 mg/dL
TOTAL PROTEIN [1]: 5.95 G/DL
URIC ACID [1]: 1.72 mg/dL
ABSOLUTE BASOPHIL [2]: 0 CELLS/uL
ABSOLUTE EOSINOPHIL [2]: 20.5 CELLS/uL
ABSOLUTE LYMPHOCYTE [2]: 13871.67 CELLS/uL
ABSOLUTE MONOCYTE [2]: 60.5 CELLS/uL
ABSOLUTE SEGMENTED NEUTROPHIL [2]: 980.67 CELLS/uL
BASOPHIL [2]: 0%
EOSINOPHIL [2]: 0.17%
ERYTHROCYTE COUNT [2]: 5.65 x10E6/uL
HEMATOCRIT [2]: 35.63%
HEMOGLOBIN [2]: 14.08 G/DL
LEUKOCYTE COUNT [2]: 14.93 x10E3/uL
LYMPHOCYTE [2]: 92.83%
MEAN CORPUSCULAR HEMOGLOBIN [2]: 24.97 pg
MEAN CORPUSCULAR HEMOGLOBIN CONCENTRATION [2]: 39.55 G/DL
MEAN CORPUSCULAR VOLUME [2]: 63.13 fL
MONOCYTE [2]: 0.33%
NEUTROPHIL [2]: 6.67%
NUCLEATED RED BLOOD CELLS [2]: 0 /100WBC
PLATELET COUNT [2]: 1248.17 x10E3/uL
ALANINE AMINOTRANSFERASE [2]: 45.17 u/L
ALBUMIN [2]: 4.27 G/DL
ALKALINE PHOSPHATASE [2]: 405.67 u/L
ASPARTATE AMINOTRANSFERASE [2]: 74.17 u/L
BLOOD UREA NITROGEN [2]: 15.5 mg/dL
CARBON DIOXIDE [2]: 30.17 mmol/L
CHLORIDE [2]: 100.67 MEQ/L
CHOLESTEROL [2]: 57 mg/dL
CREATINE PHOSPHOKINASE [2]: 239.5 u/L
CREATININE [2]: 0.17 mg/dL
GLUCOSE [2]: 165.67 mg/dL
LACTATE DEHYDROGENASE [2]: 90.5 u/L
LIPASE [2]: 8.83 u/L
PHOSPHORUS [2]: 12.32 mg/dL
POTASSIUM [2]: 7.03 MEQ/L
SODIUM [2]: 142.65 MEQ/L
TOTAL BILIRUBIN [2]: 0.18 mg/dL
TOTAL PROTEIN [2]: 6.03 G/DL
URIC ACID [2]: 1.98 mg/dL
ABSOLUTE BASOPHIL [3]: 0 CELLS/uL
ABSOLUTE EOSINOPHIL [3]: 0 CELLS/uL
ABSOLUTE LYMPHOCYTE [3]: 10730.67 CELLS/uL
ABSOLUTE MONOCYTE [3]: 90 CELLS/uL
ABSOLUTE SEGMENTED NEUTROPHIL [3]: 1446 CELLS/uL
BASOPHIL [3]: 0%
EOSINOPHIL [3]: 0%
ERYTHROCYTE COUNT [3]: 5.49 x10E6/uL
HEMATOCRIT [3]: 34.9%
HEMOGLOBIN [3]: 13.83 G/DL
LEUKOCYTE COUNT [3]: 12.27 x10E3/uL
LYMPHOCYTE [3]: 87.67%
MEAN CORPUSCULAR HEMOGLOBIN [3]: 25.3 pg
MEAN CORPUSCULAR HEMOGLOBIN CONCENTRATION [3]: 39.67 G/DL
MEAN CORPUSCULAR VOLUME [3]: 63.77 fL
MONOCYTE [3]: 0.67%
NEUTROPHIL [3]: 11.67%
NUCLEATED RED BLOOD CELLS [3]: 0.33 /100WBC
PLATELET COUNT [3]: 1239 x10E3/uL
ALANINE AMINOTRANSFERASE [3]: 45 u/L
ALBUMIN [3]: 4.17 G/DL
ALKALINE PHOSPHATASE [3]: 413.67 u/L
ASPARTATE AMINOTRANSFERASE [3]: 85.33 u/L
BLOOD UREA NITROGEN [3]: 15.33 mg/dL
CARBON DIOXIDE [3]: 26 mmol/L
CHLORIDE [3]: 99.33 MEQ/L
CHOLESTEROL [3]: 67.67 mg/dL
CREATINE PHOSPHOKINASE [3]: 343 u/L
CREATININE [3]: 0.13 mg/dL
GLUCOSE [3]: 151 mg/dL
LACTATE DEHYDROGENASE [3]: 394.67 u/L
LIPASE [3]: 9.67 u/L
PHOSPHORUS [3]: 14.23 mg/dL
POTASSIUM [3]: 6.98 MEQ/L
SODIUM [3]: 143.17 MEQ/L
TOTAL BILIRUBIN [3]: 0.2 mg/dL
TOTAL PROTEIN [3]: 5.9 G/DL
URIC ACID [3]: 1.5 mg/dL
